The values that follow are results of earlier work, collected in patent publication US20240316044A1, “GRANULATE COMPOSITION COMPRISING NILOTINIB” (HELM AG, priority 2021, published 2024).

Structures can show the parent of a compound that is named as a salt.

As to `Cc1cn(-c2cc(NC(=O)c3ccc(C)c(Nc4nccc(-c5cccnc5)n4)c3)cc(C(F)(F)F)c2)cn1` [Anhydrous Nilotinib hydrochloride, 4-methyl-N-[3-(4-methyl-1H-imidazol-1-yl)-5-(trifluoromethyl)phenyl]-3-{[4-(pyridin-3-yl)pyrimidin-2-yl]amino} benzamide], the “BCS class (low/moderate aqueous solubility and low permeability)” value was “Class IV”.
